Measurements published in ChEMBL document CHEMBL1201862, “PubChem BioAssay data set” (2004).
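Cultured in 96-well plates, cells were exposed to test compound for 48 hours across five concentrations. Abbreviation: GI50, concentration required for 50% inhibition of growth.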 The source made the active and inactive calls. Cut-off read from the data, not from the text of the source: active = GI50 up to about 1.1 µM and inactive = higher.

How the values were obtained:
Assay in all cases: inhibition of tumour cell growth, NCI panel, 48 h
[1] = tested on: 786-0
[2] = tested on: CAKI-1
[3] = tested on: CCRF-CEM
[4] = tested on: DLD-1
[5] = tested on: IGROV-1
[6] = tested on: KM12
[7] = tested on: M14
[8] = tested on: OVCAR-3
[9] = tested on: OVCAR-4
[10] = tested on: RPMI-8226
[11] = tested on: SF-268
[12] = tested on: SF-295
[13] = tested on: SK-MEL-5
[14] = tested on: SR
[15] = tested on: UO-31
[16] = tested on: K562
[17] = tested on: SK-MEL-2

Measured: GI50

CC1(C)CC(N(C(=O)/C=C/c2ccc([N+](=O)[O-])o2)C2CCCCC2)CC(C)(C)N1
inactive: [1] 6.82 µM | [2] 5.52 µM | [3] 3.25 µM | [4] 1.73 µM | [5] 14.3 µM | [6] 10.3 µM | [7] 2.82 µM | [8] 12.3 µM | [9] 10.4 µM | [10] 3.29 µM | [11] 7.62 µM | [12] 13.5 µM | [13] 10.2 µM | [14] 5.89 µM | [15] 12.2 µM

O=C(O)COc1ccc(C(=O)/C(SS/C(C(=O)c2ccc(OCC(=O)O)c(Cl)c2Cl)=C2\C=C(c3ccc(Cl)cc3)SS2)=C2/C=C(c3ccc(Cl)cc3)SS2)c(Cl)c1Cl
inactive: [1] 13.5 µM | [2] 28.1 µM | [3] 2.29 µM | [4] 11.6 µM | [5] 13.3 µM | [16] 2.43 µM | [6] 16 µM | [7] 13.5 µM | [8] 5.37 µM | [9] 5.27 µM | [10] 22.3 µM | [11] 11.2 µM | [12] 18.2 µM | [17] 14.1 µM | [13] 16.7 µM | [15] 4.89 µM

c1ccc([B-]23Oc4ccccc4[NH+]2c2ccccc2O3)cc1 (stereo not drawn)
inactive: [1] > 100 µM | [2] > 100 µM | [3] 29.6 µM | [4] 46 µM | [5] > 100 µM | [16] 36.2 µM | [6] 77.6 µM | [7] > 100 µM | [8] 56.6 µM | [9] > 100 µM | [10] 23.9 µM | [11] > 100 µM | [12] > 100 µM | [13] > 100 µM | [14] 37 µM

Nc1nc2ncn(CCO)c2c(=S)[nH]1
inactive: [1] > 100 µM | [2] > 100 µM | [3] > 100 µM | [4] > 100 µM | [5] > 100 µM | [16] > 100 µM | [6] > 100 µM | [7] > 100 µM | [8] > 100 µM | [9] > 100 µM | [10] > 100 µM | [11] > 100 µM | [12] > 100 µM | [17] > 100 µM | [13] > 100 µM | [15] > 100 µM

CCc1cccc(C)c1NC(=O)NS(=O)(=O)c1ccc(C)cc1
inactive: [1] > 100 µM | [2] > 100 µM | [3] > 100 µM | [4] > 100 µM | [5] > 100 µM | [16] > 100 µM | [6] > 100 µM | [7] > 100 µM | [8] > 100 µM | [9] > 100 µM | [10] > 100 µM | [11] > 100 µM | [12] > 100 µM | [17] > 100 µM | [13] > 100 µM | [15] > 100 µM

CCCCSN1C(=O)c2ccccc2C1=S
inactive: [1] 34.1 µM | [2] 32.6 µM | [3] 15.9 µM | [4] 44.8 µM | [5] > 100 µM | [16] 22.9 µM | [6] 37.8 µM | [7] 41.6 µM | [8] > 100 µM | [9] 76.6 µM | [10] 21 µM | [11] 48.9 µM | [12] 39.3 µM | [17] 34.4 µM | [13] 60.5 µM | [15] 53.3 µM

CC(C)CC(=O)N1CCN(C(=O)CC(C)C)c2ccccc21
inactive: [1] > 100 µM | [3] > 100 µM | [4] > 100 µM | [5] > 100 µM | [16] > 100 µM | [6] > 100 µM | [8] > 100 µM | [10] > 100 µM | [11] > 100 µM | [12] > 100 µM | [17] > 100 µM | [15] > 100 µM

C=C(C)[C@H](O)C(O)CC(C)[C@@H]1CCC23CC12CCC1[C@@]2(C)CCC(OC(C)=O)C(C)(C)C2CC(OC2OC(COC(C)=O)C(O)C(O)C2O)[C@]13C (stereo partly drawn)
inactive: [1] 7.4 µM | [2] 6.22 µM | [3] 2.62 µM | [4] 5.52 µM | [5] 3.78 µM | [16] 2.42 µM | [6] 5.47 µM | [7] 3.41 µM | [8] 5.83 µM | [9] 7.71 µM | [10] 1.5 µM | [11] 5.31 µM | [12] 6.59 µM | [17] 8.83 µM | [15] 8.18 µM

O=C1[C@@H](c2ccc(Cl)cc2)[C@H]2CC=C[C@H]2N1O
inactive: [1] > 100 µM | [2] > 100 µM | [3] 51.2 µM | [4] > 100 µM | [5] > 100 µM | [16] > 100 µM | [6] > 100 µM | [7] > 100 µM | [8] > 100 µM | [10] > 100 µM | [11] > 100 µM | [12] > 100 µM | [17] > 100 µM | [13] > 100 µM | [15] 89.7 µM

COC(=O)c1cc2c(nc1C)-c1ccccc1OS2(=O)=O
inactive: [1] 70 µM | [2] > 100 µM | [3] > 100 µM | [4] > 100 µM | [5] > 100 µM | [16] > 100 µM | [6] > 100 µM | [7] > 100 µM | [8] > 100 µM | [9] > 100 µM | [10] > 100 µM | [11] 45.5 µM | [12] 43.1 µM | [13] > 100 µM | [14] > 100 µM | [15] > 100 µM

CCN(CC)CCCCC1CCN(CC(=O)N2CC(C)C(=O)Nc3ccccc32)CC1 (stereo not drawn)
inactive: [1] > 100 µM | [2] > 100 µM | [3] > 100 µM | [4] > 100 µM | [5] > 100 µM | [16] > 100 µM | [7] > 100 µM | [8] > 100 µM | [9] > 100 µM | [10] > 100 µM | [11] > 100 µM | [12] > 100 µM | [13] > 100 µM | [14] > 100 µM | [15] > 100 µM

ON=C1CCC(c2ccccc2)CC1 (stereo not drawn)
inactive: [1] > 100 µM | [2] > 100 µM | [3] > 100 µM | [4] > 100 µM | [5] > 100 µM | [16] > 100 µM | [6] > 100 µM | [7] > 100 µM | [8] > 100 µM | [9] > 100 µM | [11] > 100 µM | [12] > 100 µM | [17] > 100 µM | [13] > 100 µM | [15] > 100 µM

Cc1cc(Cl)ccc1NC(=O)CC1SC(N)=NC1=O (stereo not drawn)
inactive: [1] > 100 µM | [2] > 100 µM | [3] 66.4 µM | [4] > 100 µM | [5] > 100 µM | [16] > 100 µM | [6] > 100 µM | [7] > 100 µM | [8] > 100 µM | [9] > 100 µM | [10] > 100 µM | [11] > 100 µM | [12] > 100 µM | [17] > 100 µM | [13] > 100 µM | [15] > 100 µM
